In the NIST ThermoML archive (doi:10.1021/je301167q):

Legend:
[1] = 101 kPa, Liquid; for speed of sound: Sing-around technique in a fixed-path interferometer
[2] = xn = mol fraction of the nth substance listed; settings: 101 kPa, Liquid; for speed of sound: Sing-around technique in a fixed-path interferometer

CCCCN [1-butanamine]
[1]
Settings | mass density [kg/m3] | speed of sound [m/s]
298.15 K | 733.33 | 1246.5
308.15 K | 723.67 | 1201.3
318.15 K | 714 | 1156.2

CCCCN [1-butanamine] + CCCCCCCC[n+]1ccn(C)c1.F[B-](F)(F)F
[2]
Settings | mass density, 298.15 K [kg/m3] | mass density, 308.15 K [kg/m3] | mass density, 318.15 K [kg/m3] | speed of sound, 298.15 K [m/s] | speed of sound, 308.15 K [m/s] | speed of sound, 318.15 K [m/s]
x2 = 0 | 733.33 | 723.67 | 714 | 1246.5 | 1201.3 | 1156.2
x2 = 0.0963 | 817.1 | 807.93 | 800.03 | 1276.5 | 1235 | 1193.1
x2 = 0.1917 | 880.04 | 871.4 | 863.91 | 1309 | 1270.6 | 1232
x2 = 0.2948 | 932.2 | 924.07 | 916.37 | 1344.1 | 1309 | 1274
x2 = 0.3866 | 968.66 | 960.74 | 953.13 | 1371.6 | 1338.8 | 1306.4
x2 = 0.49 | 1001.63 | 993.95 | 986.41 | 1398.9 | 1368.2 | 1337.9
x2 = 0.5895 | 1027.36 | 1019.96 | 1012.6 | 1421.3 | 1391.9 | 1363.3
x2 = 0.7124 | 1053.43 | 1046.28 | 1039.31 | 1442.7 | 1414.8 | 1387.4
x2 = 0.7925 | 1067.91 | 1060.88 | 1053.97 | 1454.2 | 1427.1 | 1400
x2 = 0.8843 | 1082.31 | 1075.48 | 1068.67 | 1465.8 | 1438.8 | 1412.3

CCCCN [1-butanamine] + CCCCCCn1cc[n+](C)c1.F[B-](F)(F)F
[2]
Settings | mass density, 298.15 K [kg/m3] | mass density, 308.15 K [kg/m3] | mass density, 318.15 K [kg/m3] | speed of sound, 298.15 K [m/s] | speed of sound, 308.15 K [m/s] | speed of sound, 318.15 K [m/s]
x2 = 0 | 733.33 | 723.67 | 714 | 1246.5 | 1201.3 | 1156.2
x2 = 0.0994 | 820.09 | 810.83 | 803.47 | 1272.3 | 1231.1 | 1188.8
x2 = 0.2012 | 890.48 | 881.55 | 874.79 | 1305.8 | 1267.4 | 1229
x2 = 0.302 | 946.28 | 937.89 | 930.48 | 1341 | 1305.5 | 1270.1
x2 = 0.4065 | 993.19 | 985.04 | 977.3 | 1376.3 | 1343.8 | 1312
x2 = 0.4959 | 1026.43 | 1018.45 | 1010.64 | 1404.6 | 1374.3 | 1344.3
x2 = 0.5886 | 1055.62 | 1047.87 | 1040.15 | 1428.9 | 1401.1 | 1373.6
x2 = 0.7069 | 1086.83 | 1079.26 | 1071.7 | 1456.2 | 1429.9 | 1403.8
x2 = 0.8126 | 1110.28 | 1102.83 | 1095.43 | 1474.1 | 1450.2 | 1423.8
x2 = 0.8796 | 1123.46 | 1116.13 | 1108.89 | 1483.2 | 1459.8 | 1433.9

CCCCCCn1cc[n+](C)c1.F[B-](F)(F)F [1-hexyl-3-methylimidazolium tetrafluoroborate]
[1]
Settings | mass density [kg/m3] | speed of sound [m/s]
298.15 K | 1145.11 | 1496.7
308.15 K | 1137.71 | 1472
318.15 K | 1130.49 | 1447.7

CCCCCCn1cc[n+](C)c1.F[B-](F)(F)F [1-hexyl-3-methylimidazolium tetrafluoroborate] + CCCCCCCCN
[2], x1 = 1
Settings | mass density [kg/m3] | speed of sound [m/s]
298.15 K | 1145.11 | 1496.7
308.15 K | 1137.71 | 1472
318.15 K | 1130.49 | 1447.7

CCCCCCn1cc[n+](C)c1.F[B-](F)(F)F [1-hexyl-3-methylimidazolium tetrafluoroborate] + CCCCN
[2], x1 = 1
Settings | mass density [kg/m3] | speed of sound [m/s]
298.15 K | 1145.11 | 1496.7
308.15 K | 1137.71 | 1472
318.15 K | 1130.49 | 1447.7

CCCCCCCC[n+]1ccn(C)c1.F[B-](F)(F)F [1-methyl-3-octylimidazolium tetrafluoroborate]
[1]
Settings | mass density [kg/m3] | speed of sound [m/s]
298.15 K | 1097.61 | 1481.1
308.15 K | 1090.9 | 1453.9
318.15 K | 1084.17 | 1428.2

CCCCCCCC[n+]1ccn(C)c1.F[B-](F)(F)F [1-methyl-3-octylimidazolium tetrafluoroborate] + CCCCCCCCN
[2], x1 = 1
Settings | mass density [kg/m3] | speed of sound [m/s]
298.15 K | 1097.61 | 1481.1
308.15 K | 1090.9 | 1453.9
318.15 K | 1084.17 | 1428.2

CCCCCCCC[n+]1ccn(C)c1.F[B-](F)(F)F [1-methyl-3-octylimidazolium tetrafluoroborate] + CCCCN
[2], x1 = 1
Settings | mass density [kg/m3] | speed of sound [m/s]
298.15 K | 1097.61 | 1481.1
308.15 K | 1090.9 | 1453.9
318.15 K | 1084.17 | 1428.2

CCCCCCCCN [1-octanamine]
[1]
Settings | mass density [kg/m3] | speed of sound [m/s]
298.15 K | 777.45 | 1343.2
308.15 K | 769.46 | 1303.1
318.15 K | 761.47 | 1263.5

CCCCCCCCN [1-octanamine] + CCCCCCCC[n+]1ccn(C)c1.F[B-](F)(F)F
[2]
Settings | mass density, 298.15 K [kg/m3] | mass density, 308.15 K [kg/m3] | mass density, 318.15 K [kg/m3] | speed of sound, 298.15 K [m/s] | speed of sound, 308.15 K [m/s] | speed of sound, 318.15 K [m/s]
x2 = 0 | 777.45 | 769.46 | 761.47 | 1343.2 | 1303.1 | 1263.5
x2 = 0.1563 | 851.54 | 843.71 | 835.78 | 1353.1 | 1314.6 | 1276.9
x2 = 0.3025 | 910.65 | 902.92 | 895.08 | 1370.2 | 1334.4 | 1299
x2 = 0.4175 | 951.05 | 943.4 | 935.73 | 1387.6 | 1353.8 | 1320.5
x2 = 0.5225 | 983.58 | 976.2 | 968.62 | 1404.3 | 1372.4 | 1340.9
x2 = 0.6252 | 1011.86 | 1004.63 | 997.3 | 1420.9 | 1390.6 | 1360.7
x2 = 0.7202 | 1035.54 | 1028.44 | 1021.3 | 1436.5 | 1407.1 | 1378.4
x2 = 0.794 | 1052.58 | 1045.53 | 1038.51 | 1449 | 1419.9 | 1392.2
x2 = 0.7994 | 1053.88 | 1046.83 | 1039.75 | 1449.2 | 1421.1 | 1393.2
x2 = 0.8691 | 1069.21 | 1062.23 | 1055.21 | 1461.3 | 1432.7 | 1405.8
x2 = 0.9259 | 1081.47 | 1074.59 | 1067.76 | 1470.5 | 1442.2 | 1416.1

CCCCCCCCN [1-octanamine] + CCCCCCn1cc[n+](C)c1.F[B-](F)(F)F
[2]
Settings | mass density, 298.15 K [kg/m3] | mass density, 308.15 K [kg/m3] | mass density, 318.15 K [kg/m3] | speed of sound, 298.15 K [m/s] | speed of sound, 308.15 K [m/s] | speed of sound, 318.15 K [m/s]
x2 = 0 | 777.45 | 769.46 | 761.47 | 1343.2 | 1303.1 | 1263.5
x2 = 0.2986 | 914.74 | 906.98 | 899.32 | 1365.4 | 1331.6 | 1306.8
x2 = 0.398 | 954.27 | 946.51 | 938.79 | 1379.9 | 1345.6 | 1317.5
x2 = 0.4981 | 991.03 | 983.38 | 975.59 | 1396.2 | 1364.9 | 1333.8
x2 = 0.5999 | 1025.72 | 1017.96 | 1010.27 | 1416.6 | 1386.2 | 1356.4
x2 = 0.6994 | 1057.35 | 1049.51 | 1041.89 | 1437.5 | 1409.6 | 1381.5
x2 = 0.7998 | 1087.45 | 1079.76 | 1072.25 | 1460.3 | 1433.5 | 1408.2
x2 = 0.8945 | 1114.95 | 1107.34 | 1099.87 | 1479.6 | 1455.6 | 1431.7
